Consider 40 molecules from patent publication US7629376B2, “3-substituted-5- and 6-aminoalkyl indole-2-carboxylic acid amides and related analogs as inhibitors of casein kinase I” (Aventis Pharmaceuticals Inc., priority 2004, dated 2009).

Molecules are shown by their SMILES.

The target of this assay is T1, casein kinase 1ε (Homo sapiens, UniProt P49674).
T1 construct: made in house
Briefly: Casein Kinase Epsilon 33P-ATP Filter Plate Assay for Screening CK1ε Inhibitors. Format: biochemical.

T1 sequence (P49674 whole entry): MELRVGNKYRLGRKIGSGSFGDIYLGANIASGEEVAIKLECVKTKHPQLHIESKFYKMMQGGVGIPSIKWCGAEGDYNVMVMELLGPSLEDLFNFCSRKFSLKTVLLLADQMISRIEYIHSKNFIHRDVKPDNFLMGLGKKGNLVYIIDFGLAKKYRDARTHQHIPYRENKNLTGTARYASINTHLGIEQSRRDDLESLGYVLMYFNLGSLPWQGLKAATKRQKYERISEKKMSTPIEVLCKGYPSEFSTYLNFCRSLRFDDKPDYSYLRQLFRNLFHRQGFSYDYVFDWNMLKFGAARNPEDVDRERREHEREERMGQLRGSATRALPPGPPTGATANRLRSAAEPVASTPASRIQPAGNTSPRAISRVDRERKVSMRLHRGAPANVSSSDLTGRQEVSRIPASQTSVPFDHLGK
Description: Casein Kinase Epsilon ^33P-ATP Filter Plate Assay for Screening CK1ε Inhibitors
Purpose: This assay measures the ability of compounds to inhibit the phosphorylation of the substrate casein by the enzyme casein kinase 1ε using an in vitro ^33P-ATP filtration assay.
The above are stored as 100 μL aliquots at minus 80° C. • Compounds: • Supply compounds for testing as frozen 10 mM compound stock dissolved in 100% DMSO. Assay Conditions: • Final total assay volume per well is equal to 50 μL that one prepares as follows: • 5 μL of diluted compound stock (10, 1, 0.1, 0.01 or 0.001 μM), • 5 μL of dephosphorylated casein final concentration 0.2 μg/μL, • 20 μL of CK1ε final concentration 3 ng/μL, and • 20 μL of γ-^33P-ATP final concentration 0.02 μCi/μL mixed with cold ATP (10 μM final). Methodology: • 1. Prepare 500 mL of fresh assay buffer: 50 mM Tris pH 7.5, 10 nm MgCl2, 2 mM DTT and 1 mM EGTA • 2. Obtain compounds to be evaluated as 10 μL of 10 mM stock dissolved in 100% DMSO. Use a Biomek 2000 liquid handling robot, make serial dilutions to yield 10, 1, 0.1, 0.01 and 0.001 μM final compound dilutions added as 5 μL additions to Falcon U bottom plates. […] A routine screening assay will consist of 32 compounds, which equals 4 assay plates. • 3.
• 4. Add 5 μL of compound as indicated, then add 5 μL of dephosphorylated casein (dissolved in distilled H20) (0.2 μg/μL) and 20 μL CK1ε (3 ng/μL) to the appropriate wells. • 5. Finally add 20 μL γ-^33P-ATP (0.02 μCi/μL)/10 μM cold ATP (equals approximately 2×10^6 CPM per well). • 6. Vortes the Falcon U-Bottom assay plate containing the above 50 μL reaction volume and then incubate at room temperature for 2 hours. • 7. At the end of 2 hours, stop the reaction by the addition of 65 μL of ice cold 2 mM cold ATP (made up in assay buffer) to the assay plates using a Beckman Multimek. • 8. At the same time add 25 μL 100% ice cold TCA made up in distilled H20 to a matching number of Millipore MAPH filter plates. • 9. Using a handheld 8-channel pipettor, transfer 100 μL of the reaction mixture from the Falcon U-Bottom Plate to the Millipore MAPH filter plates presoaked with TCA. • 10. Mix the Millipore MAPH filter plates gently and allow to sit at room temperature for at least 30 minutes to precipitate the proteins. • 11. After 30 minutes, place the filter plates on a Millipore vacuum manifold and filter at no more than 8 mm Hg as the MAPH filters tend to “air lock” at higher vacuum settings. • 12. […] Allow the plates to dry overnight at room temperature. The next day add 40 μL Packard Microscint-20 Scintillation Fluid per well using a Titertek Multidrop dispenser; seal the plates and count for 2 minutes/well in a Packard Topcount NXT Scintillation Counter (to provide CPM values/well). Calculation: • 1. Import Counts Per Minute (CPM) data into a proprietary data calculation and archiving database (Activity Base by IDBS version 5.0). • 2. Column 1 for each plate reflects total phosphorylation activity of the enzyme in the absence of any inhibiting compound and thus represents 100%. Column 12 reflects any nonspecific phosphorylation/retained radioactivity activity in the absence of inhibiting compound and enzyme. Typically one observes approximately 1% of Total CPMs that are “nonspecific”. • 3.

For the molecule `NCc1ccc2c(Sc3ccccc3)c(C(N)=O)[nH]c2c1` [IIa, 6-Aminomethyl-3-phenylsulfanyl-1H-indole-2-carboxylic acid amide], the inhibitory constant (Ki) (as a rule, the dissociation constant of the complex between target and ligand, obtained from inhibition or displacement) stood at 97 nM.
The same measure for `Cc1cccc(CNCc2ccc3c(Sc4ccccc4)c(C(N)=O)[nH]c3c2)c1` [IIaa, 6-[(3-Methylbenzylamino)methyl]-3-phenylsulfanyl-1H-indole-2-carboxylic acid amide]: 460 nM; for `NC(=O)c1[nH]c2cc(CNCc3cccc(C(F)(F)F)c3F)ccc2c1Sc1ccccc1` [IIab, 6-[(2-Fluoro-3-trifluoromethylbenzylamino)methyl]-3-phenylsulfanyl-1H-indole-2-carboxylic acid amide]: 4040 nM; for `COc1ccccc1CNCc1ccc2c(Sc3ccccc3)c(C(N)=O)[nH]c2c1` [IIac, 6-[(2-Methoxybenzylamino)methyl]-3-phenylsulfanyl-1H-indole-2-carboxylic acid amide]: 240 nM.
`NCCCC[C@H](N)C(=O)NCc1ccc2c(Sc3ccccc3)c(C(N)=O)[nH]c2c1` [IIad, 6-[(2,6-Diaminohexanoylamino)methyl]-3-phenylsulfanyl-1H-indole-2-carboxylic acid amide] showed an inhibition constant (Ki) of 110 nM.
The figure for `NC(=O)c1[nH]c2cc(CNC(=O)C(N)CC(=O)O)ccc2c1Sc1ccccc1` (stereo not shown) [IIae, 3-Amino-N-(2-carbamoyl-3-phenylsulfanyl-1H-indol-6-ylmethyl)succinamic acid] is 780 nM.
`NC(=O)c1[nH]c2cc(CNCc3c4ccccc4c(Cl)c4ccccc34)ccc2c1Sc1ccccc1` [IIaf, 6-{[(10-Chloro-anthracen-9-ylmethyl)amino]methyl}-3-phenylsulfanyl-1H-indole-2-carboxylic acid amide] showed a Ki of 4830 nM.
The figure for `NC(=O)c1[nH]c2cc(CN(C/C=C/c3ccco3)C/C=C/c3ccco3)ccc2c1Sc1ccccc1` [IIag] is 6920 nM.
The figure for `NC(=O)c1[nH]c2cc(CNCc3cc(Cl)cc(Cl)c3O)ccc2c1Sc1ccccc1` [IIah, 6-[(3,5-Dichloro-2-hydroxybenzylamino)methyl]-3-phenylsulfanyl-1H-indole-2-carboxylic acid amide] is 3500 nM; for `COc1cc(CNCc2ccc3c(Sc4ccccc4)c(C(N)=O)[nH]c3c2)cc(Br)c1OC` [IIai, 6-[(3-Bromo-4,5-dimethoxybenzylamino)methyl]-3-phenylsulfanyl-1H-indole-2-carboxylic acid amide] it is 600 nM; for `COc1cc(CNCc2ccc3c(Sc4ccccc4)c(C(N)=O)[nH]c3c2)ccc1OCc1ccccc1` [IIaj, 6-[(4-Benzyloxy-3-methoxybenzylamino)methyl]-3-phenylsulfanyl-1H-indole-2-carboxylic acid amide] it is 2100 nM.
The figure for `COc1ccc(CNCc2ccc3c(Sc4ccccc4)c(C(N)=O)[nH]c3c2)cc1OCc1ccccc1` [IIak, 6-[(3-Benzyloxy-4-methoxybenzylamino)methyl]-3-phenylsulfanyl-1H-indole-2-carboxylic acid amide] is 640 nM; for `NC(=O)c1[nH]c2cc(CNCc3ccc([N+](=O)[O-])s3)ccc2c1Sc1ccccc1` [IIal, 6-{[(5-Nitrothiophen-2-ylmethyl)amino]methyl}-3-phenylsulfanyl-1H-indole-2-carboxylic acid amide] it is 1210 nM.
Molecule `COC(=O)c1ccc(CNCc2ccc3c(Sc4ccccc4)c(C(N)=O)[nH]c3c2)cc1` [IIam, 4-{[(2-Carbamoyl-3-phenylsulfanyl-1H-indol-6-ylmethyl)amino]methyl}benzoic acid methyl ester] registered a Ki of 2420 nM.
`NC(=O)c1[nH]c2cc(CNCC=C(c3ccccc3)c3ccccc3)ccc2c1Sc1ccccc1` [IIan]: the inhibition constant (Ki) is > 10000 nM.
The same measure for `NC(=O)c1[nH]c2cc(CNCc3ccc(C=Cc4ccccc4)cc3)ccc2c1Sc1ccccc1` [IIao, 3-Phenylsulfanyl-6-[(4-styrylbenzylamino)methyl]-1H-indole-2-carboxylic acid amide]: > 10000 nM.
The same measure for `NC(=O)c1[nH]c2cc(CNCc3c(F)cccc3C(F)(F)F)ccc2c1Sc1ccccc1` [IIap, 6-[(2-Fluoro-6-trifluoromethylbenzylamino)methyl]-3-phenylsulfanyl-1H-indole-2-carboxylic acid amide]: > 10000 nM; for `NC(=O)c1[nH]c2cc(CNCc3ccc(-c4ccccc4Cl)o3)ccc2c1Sc1ccccc1` [IIar, 6-({[5-(2-Chlorophenyl)-furan-2-ylmethyl]amino}methyl)-3-phenylsulfanyl-1H-indole-2-carboxylic acid amide]: 2540 nM.
The figure for `NC(=O)c1[nH]c2cc(CNCc3cccn3S(=O)(=O)c3ccccc3)ccc2c1Sc1ccccc1` [IIas, 6-{[(1-Benzenesulfonyl-1H-pyrrol-2-ylmethyl)amino]methyl}-3-phenylsulfanyl-1H-indole-2-carboxylic acid amide] is 6250 nM.
`NC(=O)c1[nH]c2cc(CN(Cc3ccc([N+](=O)[O-])o3)Cc3ccc([N+](=O)[O-])o3)ccc2c1Sc1ccccc1` [IIat, 6-{[Bis-(5-nitrofuran-2-ylmethyl)amino]methyl}-3-phenylsulfanyl-1H-indole-2-carboxylic acid amide]: the Ki was > 10000 nM.
The same measure for `NC(=O)c1[nH]c2cc(CNCc3ccc([N+](=O)[O-])o3)ccc2c1Sc1ccccc1` [IIau, 6-{[(5-Nitrofuran-2-ylmethyl)amino]methyl}-3-phenylsulfanyl-1H-indole-2-carboxylic acid amide]: 700 nM; for `NC(=O)c1[nH]c2cc(CNCc3ccccc3)ccc2c1Sc1ccccc1` [IIc, 6-(Benzylaminonmethyl)-3-phenylsulfanyl-1H-indole-2-carboxylic acid amide]: 720 nM; for `NC(=O)c1[nH]c2cc(CNCc3ccc([N+](=O)[O-])cc3)ccc2c1Sc1ccccc1` [IId, 6-[(4-Nitrobenzylamino)methyl]-3-phenylsulfanyl-1H-indole-2-carboxylic acid amide]: 470 nM.
The same measure for `CN(C)c1ccc(CNCc2ccc3c(Sc4ccccc4)c(C(N)=O)[nH]c3c2)cc1` [IIe, 6-[(4-Dimethylaminobenzylamino)methyl]-3-phenylsulfanyl-1H-indole-2-carboxylic acid amide]: 730 nM; for `Cc1ccc(CNCc2ccc3c(Sc4ccccc4)c(C(N)=O)[nH]c3c2)cc1` [IIf, 6-[(4-Methylbenzylamino)methyl]-3-phenylsulfanyl-1H-indole-2-carboxylic acid amide]: 810 nM; for `COc1ccc(CNCc2ccc3c(Sc4ccccc4)c(C(N)=O)[nH]c3c2)cc1` [IIg, 6-[(4-Methoxybenzylamino)methyl]-3-phenylsulfanyl-1H-indole-2-carboxylic acid amide]: 520 nM.
In turn, `NC(=O)c1[nH]c2cc(CNCc3ccc(Br)cc3)ccc2c1Sc1ccccc1` [IIh, 6-[(4-Bromobenzylamino)methyl]-3-phenylsulfanyl-1H-indole-2-carboxylic acid amide] returned an inhibition constant (Ki) of 740 nM.
For `NC(=O)c1[nH]c2cc(CNCc3ccc(Cl)cc3)ccc2c1Sc1ccccc1` [IIi, 6-[(4-Chlorobenzylamino)methyl]-3-phenylsulfanyl-1H-indole-2-carboxylic acid amide], the Ki was determined as 390 nM.
The figure for `NC(=O)c1[nH]c2cc(CNCc3ccc(-c4ccccc4)cc3)ccc2c1Sc1ccccc1` [IIj, 6-{[(Biphenyl-4-ylmethyl)amino]methyl}-3-phenylsulfanyl-1H-indole-2-carboxylic acid amide] is 1390 nM.
The figure for `NC(=O)c1[nH]c2cc(CNCc3cccc([N+](=O)[O-])c3)ccc2c1Sc1ccccc1` [IIk, 6-[(3-Nitrobenzylamino)methyl]-3-phenylsulfanyl-1H-indole-2-carboxylic acid amide] is 1190 nM; for `NC(=O)c1[nH]c2cc(CNCc3ccccc3[N+](=O)[O-])ccc2c1Sc1ccccc1` [IIl, 6-[(2-Nitrobenzylamino)methyl]-3-phenylsulfanyl-1H-indole-2-carboxylic acid amide] it is 1770 nM; for `NC(=O)c1[nH]c2cc(CNCc3ccc(C(F)(F)F)cc3)ccc2c1Sc1ccccc1` [IIm, 3-Phenalsulfanyl-6-[(4-trifluoromethylbenzylamino)methyl]-1H-indole-2-carboxylic acid amide] it is 4880 nM.
The figure for `NC(=O)c1[nH]c2cc(CNCc3cc(F)cc(C(F)(F)F)c3)ccc2c1Sc1ccccc1` [IIn, 6-[(3-Fluoro-5-trifluoromethylbenzylamino)methyl]-3-phenylsulfanyl-1H-indole-2-carboxylic acid amide] is 4990 nM; for `CC(N)C(=O)NCc1ccc2c(Sc3ccccc3)c(C(N)=O)[nH]c2c1` (stereo not shown) [IIo, 6-[(2-Aminopropionylamino)methyl]-3-phenylsulfanyl-1H-indole-2-carboxylic acid amide] it is 170 nM.
The molecule `NCC(=O)NCc1ccc2c(Sc3ccccc3)c(C(N)=O)[nH]c2c1` [IIp, 6-[(2-Aminoacetylamino)methyl]-3-phenylsulfanyl-1H-indole-2-carboxylic acid amide] yielded a Ki of 120 nM. This Ki and that of the molecule before are within 1.5-fold of each other.
The same measure for `CCC(C)C(N)C(=O)NCc1ccc2c(Sc3ccccc3)c(C(N)=O)[nH]c2c1` (stereo not shown) [IIq, 6-[(2-Amino-3-methylpentanoylamino)methyl]-3-phenylsulfanyl-1H-indole-2-carboxylic acid amide]: 150 nM; for `NC(=O)CC[C@H](N)C(=O)NCc1ccc2c(Sc3ccccc3)c(C(N)=O)[nH]c2c1` [IIr, 2-Aminopentanedioic acid 5-amide 1-[(2-carbamoyl-3-phenylsulfanyl-1H-indol-6-ylmethyl)-amide]]: 270 nM.
The same measure for `NC(=O)c1[nH]c2cc(CNC(=O)[C@@H](N)Cc3c[nH]c4ccccc34)ccc2c1Sc1ccccc1` [IIs]: 100 nM.
As to `NC(=O)c1[nH]c2cc(CNC(=O)[C@@H](N)Cc3ccccc3)ccc2c1Sc1ccccc1` [IIt, 6-[(2-Amino-3-phenylpropionylamino)methyl]-3-phenylsulfanyl-1H-indole-2-carboxylic acid amide], the inhibition constant (Ki) is 1280 nM.
`COc1ccc2ccccc2c1CNCc1ccc2c(Sc3ccccc3)c(C(N)=O)[nH]c2c1` [IIv]: the affinity corresponds to a Ki of 1010 nM.
